Results on one molecule are retold here after patent US8957106B2, “Iminosugar treatment of tumors” (The Chancellor, Masters and Scholars of the University of …, priority 2007, dated 2015).

One data set relates to MNT-1 melanoma cells. Description: MTS cell viability assay, MNT-1. The format is cell-based. Conditions: Homo sapiens, MNT-1, 24 h, read-out: IC50 (concentration reducing number of viable cells by 50%). The protocol:
(§1) Cells were cultured at indicated densities for 24 h, medium was removed and the incubation was continued in a fresh culture medium containing various GC2 or DTIC concentrations. In control experiments, cells were grown in a culture medium containing GC2 buffer.
(§2) The standard […] (MTS)-3-(4,5-dimethylthiazol-2-yl)-5-(3-carboxymethoxyphenyl)-2-(4-sulphophenyl)-2H-tetrazolium inner salt solution assay was performed in order to examine the cytotoxic/cytostatic effect of GC2 on melanoma cells. Briefly, 7.5×10^3 cells were seeded in 96-well microtiter plates (Nunc). After an overnight incubation, serial dilutions of GC2 or DTIC were added in triplicate to a final volume of 100 μl. The blank was represented by a culture medium without cells containing the highest GC2 or DTIC concentration. After 24 h of incubation 20 μl MTS was added to each well and all samples were incubated for 3 h at 37° C. An absorbance of each well was read at 450 nm in a microplate reader. A percentage of cell viability was calculated considering that 100% cell viability was represented by an absorbance of untreated samples […]. Alternatively, the number of viable cells was determined by Trypan blue exclusion test. Melanoma cells treated with GC2 were trypsinized and cells negative for blue staining (viable cells) were counted using a hemocytometer. […]
For orientation: Tetrazolium assays rely on reduction of a dye to a coloured formazan, in cell work by metabolically active cells.

Data set [1] deals with B16F10 cells. Description: Growth rate by Trypan blue exclusion, drug scheduling and progenies. It is filed as cell-based, murine. The procedure:
The standard methanethiosulfonate (MTS)-3-(4,5-dimethylthiazol-2-yl)-5-(3-carboxymethoxyphenyl)-2-(4-sulphophenyl)-2H-tetrazolium inner salt solution assay was performed in order to examine the cytotoxic/cytostatic effect of GC2 on melanoma cells. Briefly, 7.5×10^3 cells were seeded in 96-well microtiter plates (Nunc). After an overnight incubation, serial dilutions of GC2 or DTIC were added in triplicate to a final volume of 100 μl. The blank was represented by a culture medium without cells containing the highest GC2 or DTIC concentration. After 24 h of incubation 20 μl MTS was added to each well and all samples were incubated for 3 h at 37° C. An absorbance of each well was read at 450 nm in a microplate reader. A percentage of cell viability was calculated considering that 100% cell viability was represented by an absorbance of untreated samples (blank absorbance). Alternatively, the number of viable cells was determined by Trypan blue exclusion test. Melanoma cells treated with GC2 were trypsinized and cells negative for blue staining (viable cells) were counted using a hemocytometer.
In order to be successful, chemotherapy schedule can be set based on a type of targeted cells, a rate, at which the cells divide, and a time, at which a given drug is likely to be effective. Melanoma cells have versatile mechanisms to survive treatments with most chemotherapeutical drugs. Whether a specific scheduling of GC2 therapy is important was investigated by studying how a growth rate of melanoma cells is affected by incubation with a single dose of GC2 for a prolonged time period and with multiple GC2 doses freshly added every 24 h. Because of its high proliferation rate, a metastatic cell line B16F10 was selected for these experiments. The cells were cultured for 72 h under the following conditions: 1) in the absence of GC2 (control sample-C), 2) with a single GC2 dose of 6.0 μM (sample-S), and 3) with multiple GC2 doses of 6.0 μM freshly added every 24 h ([…]). A number of viable cells was determined by Trypan blue exclusion test and a growth rate was calculated in order to estimate an anti-proliferative effect of GC2. Under normal drug-free conditions, B16F10 cells approximately double their number every 24 h (FIG. 4A). Incubation with a single dose of GC2 decreased the growth rate from 2.29 to 1.26 for 24 h incubation and from 7.26 to 3.7 for 72 h incubation. […] Cells treated with GC2 freshly added every 24 h had the lowest growth rate of 2.02.
Equal numbers of B16F10 cells previously cultured for 72 h 1) without GC2 (C), 2) in the presence of a single GC2 dose of 6 μM (S) or 3) multiple GC2 doses of 6 μM freshly added every 24 h (S*) were further incubated either without GC2 (0 μM) or with a lower GC2 concentration (3 μM). At the end of a 48 h incubation period a number of viable cells was determined by Trypan blue exclusion test and a percentage of cell growth was calculated considering a cell number cultured with 3 μM of GC2 for 48 h to be 100%. Cells cultured with a single dose of GC2 for 72 h followed by 48 h without the drug proliferated at a rate of 99%. The rate decreased to 70% after the additional 48 h incubation of these cells in the presence of 3 μM GC2 (FIG. 4C). […] The lowest growth rate, (5%) was registered for the cells previously exposed to multiple doses of freshly added drug for 72 h and then further grown for 48 h in the presence of 3 μM GC2.

The test system of the next data set is B16F10 melanoma cells. Description: MTS cell viability assay, B16F10. It is filed as cell-based, murine. Conditions: Mus musculus, B16-F10, B16F10, 24 h, read-out: IC50 (concentration reducing number of viable cells by 50%). The procedure:
as §1, §2

Data set [2] in a line: Solubility in solvent mixture. It is filed as physicochemical. Particulars: solvent mixture (GC2 buffer).
In data set [3] the test system is B16F10 cells. Description: Cell cycle distribution analysis (PI, flow cytometry), B16F10. It is filed as cell-based, murine. Particulars: B16F10, 6 μM, 24 h. The protocol: Cell cycle analysis in melanoma cells treated with GC2 was performed by determining DNA content using propidium iodide (PI) staining. PI intercalates into the major groove of double stranded DNA and produces a highly fluorescent adduct that can be excited at 488 nm and with a broad emission centered at 600 nm, see e.g. Krishan A. J. Cell. Biol. 66, 188, 1975. Melanoma cells (20×10^4) were cultured in 25 cm^2 tissue culture flasks for 24 h, followed by a further incubation for indicated time periods with 6 μM GC2. After treatment, adherent cells were trypsinized and a number of viable cells was determined by trypan blue exclusion. […] cells were re-suspended in 200 μl FACS buffer (2% FCS in PBS) and fixed with 600 μl absolute methanol, dropwise added under gentle vortexing, for at least 2 h at −20° C. Fixed cells were washed with FACS buffer, centrifuged for 5 min at 1500 rpm, at 4° C., and incubated for 30 min, in the dark, at room temperature (RT) with 200 μl PI staining solution in 3.8 mM sodium citrate (10 μl RNaze 10 μg/ml previously boiled for 5 min and 1 μl PI 10 mg/ml). The staining solution was removed by centrifugation and the cell pellet was re-suspended in 200 μl FACS buffer. Samples were analyzed for DNA content using a FACScan™ using CellQuest™ software (Becton Dickinson, San Jose, Calif.). […]

SMILES strings stand for the structures.

Regarding `CC(=O)O.CCCCCCCCCN1[C@@H](CO)[C@@H](O)[C@H](O)[C@@H]1CCCCCCCC` [GC2, (2S,3R,4R,5S)-3,4-dihydroxy-N-nonyl-5-octyl-2 hydroxymethylpyrrolidinium acetate], the IC50 in the data set with MNT-1 melanoma cells and in the data set with B16F10 melanoma cells was 7 to 8 µM in each case. Also, in the data set on B16F10 cells [1] (Mus musculus, B16-F10, multiple 6 μM doses 72 h, then 48 h with 3 μM GC2, read-out: growth rate of progenies (% of control growth)), the activity at 3 µM was 5%. In addition, the activity at 6 µM in the data set with B16F10 cells [1] (Mus musculus, B16-F10, single 6 μM dose 72 h, then 48 h without drug, read-out: proliferation rate of progenies (% of control growth)) came out at 99%. Moreover, the “proliferation rate of progenies (% of control growth)” value in the data set with B16F10 cells [1] (multiple 6 μM doses 72 h, then 48 h without drug) came to 43%; with B16F10 cells [1] (single 6 μM dose 72 h, then 48 h with 3 μM GC2) it was 70%. For the same molecule, the “growth rate (ratio of cell number to initial cell number)” value in the data set with B16F10 cells [1] (multiple 6.0 μM doses freshly added every 24 h, 72 h, control 7.26) came to 2.02; with B16F10 cells [1] (single dose 6.0 μM, 24 h incubation, control 2.29), 1.26; in the data set with B16F10 cells [1] (single dose 6.0 μM, 72 h incubation, control 7.26) it was 3.7. Besides, in data set [2], the solubility result is listed as “good solubility”. Moreover, the “number of cells in G2 phase” value in the data set with B16F10 cells [3] (untreated 21.68%) is 16.96%. Besides, in the data set with B16F10 cells [3] (untreated 45.42), the “proportion of surviving cells in G0/G1 phase” value was 53.74%.
